Data reported in patent US6777408B1, “Pyrido-thieno-diazepines method for the production thereof and pharmaceutical compositions containing said pyrido-thieno-diazepines” (Societe de Conseils de Recherches et d'Applications …, priority 1999, dated 2004).

Row | melting point [°C] | Compound
1 | 152 | COc1ccc(NC(=S)N2CCc3c(sc4c3C(c3ccccc3Cl)=NCC(=S)N4CCc3ccccc3)C2)c([N+](=O)[O-])c1
2 | 90 to 95 | COc1ccc(NC(=S)N2CCc3c(sc4c3C(c3ccccc3Cl)=NC(OC(=O)CCCCCCN)C(=O)N4CCc3ccccc3)C2)c([N+](=O)[O-])c1 (stereo not drawn) [Example 8, 3-(7-amino-1-oxo-heptyloxy)-5-(2-chlorophenyl)-1,2,3,6,7,9-hexahydro-N-(4-methoxy-2-nitrophenyl)-2-oxo-1-(2-phenylethyl)-8H-pyrido[4′,3′:4,5]thieno[2,3-e]-1,4-diazepine-8-carbothioamide]
3 | 128 to 130 | O=C1CNC(c2ccccc2Cl)c2c(sc3c2CCNC3)N1CCc1ccccc1 (stereo not drawn) [Example 13, 5-(2-chlorophenyl)-1,3,4,5,6,7,8,9-octahydro-1-(2-phenylethyl)-2H-pyrido[4′,3′:4,5]thieno[2,3-e]-1,4-diazepine-2-one]
